Two compounds from ChEMBL document CHEMBL5463725, “Data for DCP probe BAY-277” (2023) can be followed below.

Structures are written as SMILES.

The target in assay [1] is T1, 5-hydroxytryptamine receptor 1A (Homo sapiens) (UniProt P08908).
T1 sequence (whole entry): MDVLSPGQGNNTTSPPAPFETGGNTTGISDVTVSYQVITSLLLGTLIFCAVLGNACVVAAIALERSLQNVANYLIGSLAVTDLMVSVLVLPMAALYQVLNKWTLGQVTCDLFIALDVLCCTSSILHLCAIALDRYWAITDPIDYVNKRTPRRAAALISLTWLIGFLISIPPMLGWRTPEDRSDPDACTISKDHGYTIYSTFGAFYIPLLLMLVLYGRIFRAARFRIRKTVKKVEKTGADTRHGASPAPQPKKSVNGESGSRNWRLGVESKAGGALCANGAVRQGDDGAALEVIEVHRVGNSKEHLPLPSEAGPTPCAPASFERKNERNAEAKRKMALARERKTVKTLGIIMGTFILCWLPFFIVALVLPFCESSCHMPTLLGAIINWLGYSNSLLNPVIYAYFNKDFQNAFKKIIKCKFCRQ
To be noted: Compound concentration 10.0 uM.

The target in assay [2] is Muscarinic acetylcholine receptor M5 (Homo sapiens) (UniProt P08912). The settings on record: Compound concentration 10.0 uM.
Chain of Muscarinic acetylcholine receptor M5 (Homo sapiens) (P08912 whole entry): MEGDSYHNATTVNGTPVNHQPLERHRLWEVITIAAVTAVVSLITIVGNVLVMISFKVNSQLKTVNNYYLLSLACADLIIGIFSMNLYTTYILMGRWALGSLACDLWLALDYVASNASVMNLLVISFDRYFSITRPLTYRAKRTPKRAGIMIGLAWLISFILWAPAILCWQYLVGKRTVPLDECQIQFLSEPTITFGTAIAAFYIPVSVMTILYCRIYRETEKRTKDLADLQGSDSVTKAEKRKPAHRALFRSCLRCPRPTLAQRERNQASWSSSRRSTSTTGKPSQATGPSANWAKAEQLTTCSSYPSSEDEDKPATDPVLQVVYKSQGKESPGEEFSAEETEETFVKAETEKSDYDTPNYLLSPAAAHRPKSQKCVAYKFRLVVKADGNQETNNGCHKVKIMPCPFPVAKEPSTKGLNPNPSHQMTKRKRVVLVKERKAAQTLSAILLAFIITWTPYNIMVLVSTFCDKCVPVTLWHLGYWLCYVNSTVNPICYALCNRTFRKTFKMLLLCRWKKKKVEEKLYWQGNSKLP
For assay [3], the target named is T2, Histamine H3 receptor (Homo sapiens, UniProt Q9Y5N1). Kind of assay: Inhibition of Histamine H3 at 10.0 µM in the Eurofins Panlabs Safety Screen. The settings on record: Compound concentration 10.0 uM.
T2 sequence (Q9Y5N1 whole entry): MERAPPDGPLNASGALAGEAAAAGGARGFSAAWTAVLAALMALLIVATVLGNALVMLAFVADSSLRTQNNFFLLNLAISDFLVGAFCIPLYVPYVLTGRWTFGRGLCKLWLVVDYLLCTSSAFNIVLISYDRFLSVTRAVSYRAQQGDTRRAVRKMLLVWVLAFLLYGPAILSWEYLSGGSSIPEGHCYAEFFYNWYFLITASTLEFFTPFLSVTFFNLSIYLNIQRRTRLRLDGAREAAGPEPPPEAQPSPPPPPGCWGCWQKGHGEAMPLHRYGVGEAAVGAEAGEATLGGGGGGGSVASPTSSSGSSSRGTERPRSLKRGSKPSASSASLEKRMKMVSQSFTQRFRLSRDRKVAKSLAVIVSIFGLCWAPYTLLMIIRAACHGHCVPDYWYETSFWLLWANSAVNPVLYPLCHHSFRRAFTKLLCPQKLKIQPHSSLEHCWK
Assay [4] has as its target D(1A) dopamine receptor (Homo sapiens) (UniProt P21728). Kind of assay: Inhibition of Dopamine D1 at 10.0 µM in the Eurofins Panlabs Safety Screen. To be noted: Compound concentration 10.0 uM.
Assay [5] addresses Sodium-dependent dopamine transporter (Homo sapiens, UniProt Q01959). Kind of assay: GPCRScan assay: inhibition of DAT. Details: radioligand conc. used [nm] 3.6 – 16.0, parental cells stable HEK.
Assay [6] has as its target Vascular endothelial growth factor receptor 3 (Homo sapiens) (UniProt P35916). Kind of assay: Inhibition of Flt4(h) at 10.0 µM in the Eurofins Kinase panel. The settings on record: Compound concentration 10.0 uM.
In assay [7] the target is 5-hydroxytryptamine receptor 2A (Homo sapiens) (UniProt P28223). Kind of assay: Inhibition of Serotonin (5-Hydroxytryptamine) 5-HT2A at 10.0 µM in the Eurofins Panlabs Safety Screen. The settings on record: Compound concentration 10.0 uM.
Chain of 5-hydroxytryptamine receptor 2A (Homo sapiens) (P28223 whole entry): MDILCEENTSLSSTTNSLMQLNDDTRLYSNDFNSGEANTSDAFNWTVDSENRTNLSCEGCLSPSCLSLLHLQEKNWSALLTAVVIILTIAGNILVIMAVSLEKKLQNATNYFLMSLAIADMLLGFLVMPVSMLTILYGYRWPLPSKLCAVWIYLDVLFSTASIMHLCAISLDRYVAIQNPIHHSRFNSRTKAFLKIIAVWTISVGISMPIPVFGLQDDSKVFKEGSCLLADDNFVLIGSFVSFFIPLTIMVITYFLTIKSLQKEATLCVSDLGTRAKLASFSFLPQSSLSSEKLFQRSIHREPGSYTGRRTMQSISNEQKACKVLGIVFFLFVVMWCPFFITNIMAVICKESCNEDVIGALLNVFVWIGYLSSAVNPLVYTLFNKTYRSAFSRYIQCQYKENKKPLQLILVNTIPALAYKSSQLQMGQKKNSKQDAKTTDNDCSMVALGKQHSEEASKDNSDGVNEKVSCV
The target of assay [8] is Carbonic anhydrase 2 (Homo sapiens) (UniProt P00918). Kind of assay: Inhibition of Carbonic Anhydrase II at 10.0 µM in the Eurofins Panlabs Safety Screen. To be noted: Compound concentration 10.0 uM.
Assay [9] has as its target T3, Muscarinic acetylcholine receptor M4 (Homo sapiens, UniProt P08173).
T3 sequence (P08173 whole entry): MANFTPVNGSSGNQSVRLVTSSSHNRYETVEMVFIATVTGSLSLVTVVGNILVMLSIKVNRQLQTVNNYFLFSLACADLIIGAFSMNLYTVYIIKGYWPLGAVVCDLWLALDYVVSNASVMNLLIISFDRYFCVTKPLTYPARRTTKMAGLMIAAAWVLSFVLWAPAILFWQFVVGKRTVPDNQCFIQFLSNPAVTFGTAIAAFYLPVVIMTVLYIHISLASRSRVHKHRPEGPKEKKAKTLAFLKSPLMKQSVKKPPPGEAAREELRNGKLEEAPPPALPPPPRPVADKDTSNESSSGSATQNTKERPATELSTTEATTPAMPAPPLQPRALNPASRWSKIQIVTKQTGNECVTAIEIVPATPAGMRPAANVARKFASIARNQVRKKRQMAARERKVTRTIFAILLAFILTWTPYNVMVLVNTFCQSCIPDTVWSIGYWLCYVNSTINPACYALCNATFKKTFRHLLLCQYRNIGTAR
Kind of assay: GPCRScan assay: inhibition of M4. Further details: radioligand conc. used [nm] 0.3 – 1.0, parental cells stable CHO.

The target of assay [10] is Acetylcholinesterase (Homo sapiens) (UniProt P22303). Kind of assay: Inhibition of Cholinesterase, Acetyl, ACES at 10.0 µM in the Eurofins Panlabs Safety Screen. The settings on record: Compound concentration 10.0 uM.
Chain of Acetylcholinesterase (Homo sapiens) (P22303 whole entry): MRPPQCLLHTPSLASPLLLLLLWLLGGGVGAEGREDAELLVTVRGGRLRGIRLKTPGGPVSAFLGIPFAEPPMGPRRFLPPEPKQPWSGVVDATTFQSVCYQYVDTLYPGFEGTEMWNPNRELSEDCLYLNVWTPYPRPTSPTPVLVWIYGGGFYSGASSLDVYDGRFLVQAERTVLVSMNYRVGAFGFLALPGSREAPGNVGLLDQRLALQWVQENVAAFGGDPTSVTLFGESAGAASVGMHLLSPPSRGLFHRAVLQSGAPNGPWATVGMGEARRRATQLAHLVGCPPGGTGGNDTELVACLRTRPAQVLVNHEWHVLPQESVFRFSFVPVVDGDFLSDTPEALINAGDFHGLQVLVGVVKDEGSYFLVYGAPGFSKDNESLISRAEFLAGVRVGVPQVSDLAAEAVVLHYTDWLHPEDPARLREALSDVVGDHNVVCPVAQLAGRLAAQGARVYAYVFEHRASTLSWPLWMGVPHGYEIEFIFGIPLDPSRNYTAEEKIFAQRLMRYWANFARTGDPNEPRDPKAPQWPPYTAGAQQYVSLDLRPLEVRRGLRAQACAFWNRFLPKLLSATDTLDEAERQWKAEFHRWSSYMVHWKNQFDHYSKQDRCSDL
In assay [11] the target is T4, Muscarinic acetylcholine receptor M1 (Homo sapiens) (UniProt P11229).
T4 sequence (whole entry): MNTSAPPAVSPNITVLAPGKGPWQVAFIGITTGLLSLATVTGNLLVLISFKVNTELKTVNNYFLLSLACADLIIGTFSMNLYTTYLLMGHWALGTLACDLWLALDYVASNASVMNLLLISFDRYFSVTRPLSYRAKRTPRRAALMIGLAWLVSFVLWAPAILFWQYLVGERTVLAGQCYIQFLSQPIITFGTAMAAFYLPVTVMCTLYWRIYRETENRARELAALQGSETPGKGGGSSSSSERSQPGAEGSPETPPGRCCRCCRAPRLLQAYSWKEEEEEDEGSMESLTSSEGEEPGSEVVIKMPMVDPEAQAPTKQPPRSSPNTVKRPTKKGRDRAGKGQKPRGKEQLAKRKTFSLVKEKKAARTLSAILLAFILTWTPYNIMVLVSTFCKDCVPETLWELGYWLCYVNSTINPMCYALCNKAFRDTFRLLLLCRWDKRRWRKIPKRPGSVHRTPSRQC
To be noted: Compound concentration 10.0 uM.

Assay [12] has as its target Endothelin receptor type B (Homo sapiens) (UniProt P24530). Kind of assay: Inhibition of Endothelin ETB at 10.0 µM in the Eurofins Panlabs Safety Screen. The settings on record: Compound concentration 10.0 uM.
Assay [13] concerns the target T2, Histamine H3 receptor. The settings on record: Compound concentration 10.0 uM.
In assay [14] the target is Muscarinic acetylcholine receptor M3 (Homo sapiens, UniProt P20309). Kind of assay: Inhibition of Muscarinic M3 at 10.0 µM in the Eurofins Panlabs Safety Screen. To be noted: Compound concentration 10.0 uM.
Chain of Muscarinic acetylcholine receptor M3 (P20309 whole entry, looked up): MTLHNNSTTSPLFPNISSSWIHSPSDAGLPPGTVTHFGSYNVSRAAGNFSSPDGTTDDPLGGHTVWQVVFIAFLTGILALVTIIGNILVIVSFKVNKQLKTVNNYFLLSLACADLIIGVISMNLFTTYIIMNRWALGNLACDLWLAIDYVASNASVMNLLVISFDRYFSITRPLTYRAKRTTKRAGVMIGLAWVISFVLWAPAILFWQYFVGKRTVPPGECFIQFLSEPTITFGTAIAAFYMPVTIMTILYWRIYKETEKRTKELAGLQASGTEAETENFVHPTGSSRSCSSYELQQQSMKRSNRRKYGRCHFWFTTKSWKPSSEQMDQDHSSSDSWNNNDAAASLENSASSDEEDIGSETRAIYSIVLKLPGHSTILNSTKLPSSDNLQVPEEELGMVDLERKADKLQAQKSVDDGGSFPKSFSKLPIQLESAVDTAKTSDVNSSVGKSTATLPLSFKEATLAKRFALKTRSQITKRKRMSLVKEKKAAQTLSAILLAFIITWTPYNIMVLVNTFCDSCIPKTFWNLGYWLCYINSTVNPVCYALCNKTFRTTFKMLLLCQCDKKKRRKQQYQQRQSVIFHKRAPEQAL
Assay [15] has as its target T5, Muscarinic acetylcholine receptor M2 (Homo sapiens) (UniProt P08172).
T5 sequence (whole entry): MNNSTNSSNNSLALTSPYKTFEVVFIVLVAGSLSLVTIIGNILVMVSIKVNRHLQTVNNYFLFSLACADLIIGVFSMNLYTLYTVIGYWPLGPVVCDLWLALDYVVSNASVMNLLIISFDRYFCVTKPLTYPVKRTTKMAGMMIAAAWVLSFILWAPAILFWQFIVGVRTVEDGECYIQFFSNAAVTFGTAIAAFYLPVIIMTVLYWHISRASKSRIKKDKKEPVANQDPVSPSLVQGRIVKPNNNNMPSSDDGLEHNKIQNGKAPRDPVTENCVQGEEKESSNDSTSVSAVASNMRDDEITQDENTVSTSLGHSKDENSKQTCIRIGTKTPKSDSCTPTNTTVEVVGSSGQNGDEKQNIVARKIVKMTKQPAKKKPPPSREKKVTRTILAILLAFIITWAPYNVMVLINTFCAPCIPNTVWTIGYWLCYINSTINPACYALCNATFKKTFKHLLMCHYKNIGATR
To be noted: Compound concentration 10.0 uM.

For assay [16], the target named is D(3) dopamine receptor (Homo sapiens, UniProt P35462). Kind of assay: GPCRScan assay: inhibition of D3. Details: radioligand conc. used [nm] 0.5 – 1.8, parental cells HEKT.
Chain of D(3) dopamine receptor (P35462 whole entry): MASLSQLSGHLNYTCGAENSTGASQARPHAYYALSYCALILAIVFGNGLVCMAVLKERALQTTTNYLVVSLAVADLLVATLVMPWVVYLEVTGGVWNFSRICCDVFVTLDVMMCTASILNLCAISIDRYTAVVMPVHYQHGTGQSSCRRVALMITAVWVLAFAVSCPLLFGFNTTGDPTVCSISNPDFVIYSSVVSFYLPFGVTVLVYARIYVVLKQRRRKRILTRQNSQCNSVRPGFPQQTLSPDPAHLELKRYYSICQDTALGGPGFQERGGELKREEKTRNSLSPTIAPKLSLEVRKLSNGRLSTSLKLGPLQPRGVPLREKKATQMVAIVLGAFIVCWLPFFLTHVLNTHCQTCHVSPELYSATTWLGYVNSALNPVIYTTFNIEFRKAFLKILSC
Assay [17] addresses Serine/threonine-protein kinase Sgk3 (Homo sapiens) (UniProt Q96BR1). Kind of assay: Inhibition of SGK3(h) at 10.0 µM in the Eurofins Kinase panel. The settings on record: Compound concentration 10.0 uM.
The target of assay [18] is MAP kinase-activated protein kinase 3 (Homo sapiens) (UniProt Q16644). Kind of assay: Inhibition of MAPKAP-K3(h) at 10.0 µM in the Eurofins Kinase panel. The settings on record: Compound concentration 10.0 uM.
Chain of MAP kinase-activated protein kinase 3 (Homo sapiens) (Q16644 whole entry, looked up): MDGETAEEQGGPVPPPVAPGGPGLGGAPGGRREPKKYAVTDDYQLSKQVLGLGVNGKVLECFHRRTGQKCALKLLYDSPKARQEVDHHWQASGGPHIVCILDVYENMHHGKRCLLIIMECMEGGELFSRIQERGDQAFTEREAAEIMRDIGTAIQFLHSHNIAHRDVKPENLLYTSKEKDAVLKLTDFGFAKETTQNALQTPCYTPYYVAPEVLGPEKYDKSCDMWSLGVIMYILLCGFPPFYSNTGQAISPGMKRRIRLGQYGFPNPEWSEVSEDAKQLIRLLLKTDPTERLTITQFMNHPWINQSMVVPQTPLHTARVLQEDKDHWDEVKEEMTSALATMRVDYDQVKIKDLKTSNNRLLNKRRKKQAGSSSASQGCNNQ

Chain of Sodium-dependent dopamine transporter (Q01959 whole entry): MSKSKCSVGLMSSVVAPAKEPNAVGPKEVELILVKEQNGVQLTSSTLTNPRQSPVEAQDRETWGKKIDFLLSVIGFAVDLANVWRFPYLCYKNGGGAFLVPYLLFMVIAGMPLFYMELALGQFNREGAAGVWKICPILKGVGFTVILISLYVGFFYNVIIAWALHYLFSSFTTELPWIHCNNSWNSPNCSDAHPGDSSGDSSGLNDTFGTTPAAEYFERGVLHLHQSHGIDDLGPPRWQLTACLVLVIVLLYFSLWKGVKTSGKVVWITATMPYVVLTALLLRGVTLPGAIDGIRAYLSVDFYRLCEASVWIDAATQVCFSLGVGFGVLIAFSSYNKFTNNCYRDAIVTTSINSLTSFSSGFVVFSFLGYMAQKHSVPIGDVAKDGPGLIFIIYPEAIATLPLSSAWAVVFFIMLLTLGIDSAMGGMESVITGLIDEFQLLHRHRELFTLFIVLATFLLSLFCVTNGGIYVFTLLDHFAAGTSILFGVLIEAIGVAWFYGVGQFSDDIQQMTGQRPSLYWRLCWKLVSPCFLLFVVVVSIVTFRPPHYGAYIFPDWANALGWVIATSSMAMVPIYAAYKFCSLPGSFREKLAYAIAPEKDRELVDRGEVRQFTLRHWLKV
Chain of D(1A) dopamine receptor (Homo sapiens) (P21728 whole entry): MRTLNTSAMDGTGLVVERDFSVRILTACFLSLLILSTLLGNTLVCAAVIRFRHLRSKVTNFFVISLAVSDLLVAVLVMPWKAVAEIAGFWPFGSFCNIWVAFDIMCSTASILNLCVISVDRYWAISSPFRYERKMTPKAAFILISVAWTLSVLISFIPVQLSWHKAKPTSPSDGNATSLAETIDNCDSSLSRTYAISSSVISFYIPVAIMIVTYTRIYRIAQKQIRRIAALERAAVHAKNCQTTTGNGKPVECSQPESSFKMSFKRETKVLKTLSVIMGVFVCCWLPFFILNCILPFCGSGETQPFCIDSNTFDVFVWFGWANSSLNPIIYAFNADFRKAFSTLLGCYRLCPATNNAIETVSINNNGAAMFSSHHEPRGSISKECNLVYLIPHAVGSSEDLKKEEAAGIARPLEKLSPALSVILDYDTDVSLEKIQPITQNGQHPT
Chain of Endothelin receptor type B (Homo sapiens) (P24530 whole entry): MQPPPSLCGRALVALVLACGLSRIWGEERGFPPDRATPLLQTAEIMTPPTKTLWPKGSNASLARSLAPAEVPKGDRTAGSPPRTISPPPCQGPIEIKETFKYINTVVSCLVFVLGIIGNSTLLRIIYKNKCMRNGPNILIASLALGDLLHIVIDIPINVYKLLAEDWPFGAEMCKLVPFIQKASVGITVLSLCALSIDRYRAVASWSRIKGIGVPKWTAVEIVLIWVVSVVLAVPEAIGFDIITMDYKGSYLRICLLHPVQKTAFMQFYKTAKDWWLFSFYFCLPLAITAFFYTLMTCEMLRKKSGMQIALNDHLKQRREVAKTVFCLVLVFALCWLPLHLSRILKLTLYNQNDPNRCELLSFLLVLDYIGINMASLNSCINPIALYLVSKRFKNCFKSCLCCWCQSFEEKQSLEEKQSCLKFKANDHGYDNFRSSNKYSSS

Broadly, the inhibition is the drop in the measured response relative to a control, in per cent. For `O=C1CCC(N2Cc3cc(C4CCN(C(=O)CCCCCN5CCC(c6ccc(Oc7nn8cnnc8c8c7CCCC8)cc6)CC5)CC4)ccc3C2=O)C(=O)N1` (configuration not stated), the inhibition in assay [1] was 7.96%; in [2] it was 71%; in assay [3], 81%; in [4], 16%; in [6] it was 12.5%; in assay [7], 35%. The inhibition in assay [8] is -8%; in [10] it was 45%; in assay [11], 71.3%; in assay [12], 2%; in assay [13] it was 100%; in assay [14], 26%. In addition, the inhibition in assay [15] is 64.3%. The Ki in assay [5] (read-out: Ki) was 3730 nM; in [5] (read-out: pKi (converted)), 3390 nM; in assay [9] (read-out: Ki) it was 632 nM; in assay [9] (read-out: pKi (converted)), 617 nM.
For the compound `O=C1NCCCC1N1Cc2cc(C3CCN(C(=O)CCCCCN4CCC(c5ccc(Oc6nn7cnnc7c7c6CCCC7)cc5)CC4)CC3)ccc2C1=O` (configuration not stated), the inhibition in assay [1] is 35.3%; in assay [2], 41.8%; in [3], 85%; in assay [4], 20%; in assay [17], 13.4%; in [7], 39%. Also, the inhibition is -8% in [8]; 38% in assay [10]; 60.4% in [11]; -5% in assay [12]; 91.5% in [13]; 29% in [14]. Further, the inhibition in [18] is 11.4%; in assay [15], 57.2%. Moreover, the Ki is 525 nM in [16] (read-out: Ki); 490 nM in assay [16] (read-out: pKi (converted)); 4810 nM in [5] (read-out: Ki); 4470 nM in assay [5] (read-out: pKi (converted)); 894 nM in assay [9] (read-out: Ki); 891 nM in assay [9] (read-out: pKi (converted)).
